Measured values published in patent US20040235908A1, “3,4-Di-substituted cyclobutene-1,2-diones as CXC-chemokine receptor antagonists” (Schering Corporation, priority 2001, published 2004).

Biological target: T1, hCXCR2 (Homo sapiens, UniProt P25025)
T1 construct: purchased Biosignal; host or cells: CHO cells overexpressing hCXCR2 (membrane preparation)
T1 sequence (P25025 1-360): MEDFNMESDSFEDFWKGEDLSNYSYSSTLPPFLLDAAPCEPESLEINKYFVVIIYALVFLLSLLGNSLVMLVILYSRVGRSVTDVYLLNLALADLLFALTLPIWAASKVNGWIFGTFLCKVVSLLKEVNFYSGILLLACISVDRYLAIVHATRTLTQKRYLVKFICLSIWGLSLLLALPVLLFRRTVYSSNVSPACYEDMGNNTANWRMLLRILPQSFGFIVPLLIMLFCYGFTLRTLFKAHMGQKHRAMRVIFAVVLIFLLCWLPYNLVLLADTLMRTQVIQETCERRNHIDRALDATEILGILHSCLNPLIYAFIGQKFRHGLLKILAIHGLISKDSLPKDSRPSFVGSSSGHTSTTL
Experiment: CXCR2 SPA receptor binding assay
Details: hCXCR2-CHO overexpressing membranes, [125I]-IL-8 ligand 0.1 nM
Procedure: For each well of a 96 well plate, a reaction mixture of 4 μg hCXCR2-CHO overexpressing membranes (Biosignal) and 200 μg/well WGA-SPA beads (Amersham) in 100 μl was prepared in CXCR2 assay buffer (25 mM HEPES, pH 7.4, 2 mM CaCl2, 1 mM MgCl2). A 0.4 nM stock of ligand, [125I]-IL-8 (NEN), was prepared in the CXCR2 assay buffer. […] stock solutions of test compounds were prepared in DMSO (Sigma). A 6× stock solution of GRO-α (R&D) was prepared in CXCR2 assay buffer. The above solutions were added to a 96-well assay plate (PerkinElmer or Coming) as follows: 10 μl test compound or DMSO, 40 ul CXCR2 assay buffer or GRO-α stock, 100 μl of reaction mixture, 50 μl of ligand stock (Final [Ligand]=0.1 nM). When 40× stock solutions of test compounds in DMSO were prepared, then the above protocol was used except instead 5 μl test compound or DMSO and 45 μl CXCR2 assay buffer were used. The assay plates were shaken for 5 minutes on a plate shaker, then incubated for 2-8 hours before cpm/well were determined in Microbeta Trilux counter (PerkinElmer). % Inhibition of total binding minus non-specific binding (250 nM Gro-α or 50 μM antagonist) was determined and IC50 values calculated.

IC50	Structure (SMILES)
10 nM	O=C(c1cccc(Nc2c(Nc3ccccc3)c(=O)c2=O)c1O)N1CCOCC1 [Example 45]
28 nM	CC(C)c1ccccc1Nc1c(Nc2cccc(C(=O)N(C)C)c2O)c(=O)c1=O [Example 64]
